Data set [1] has as its system IL-6 expression in BxPc3 human PDAC cells. Description: Quantitative RT-PCR for IL-6 mRNA expression in BxPc3 pancreatic cancer cells. The settings on record: BxPc3 cells treated 48 hours with 0.2 μM or 1 μM, relative to DMSO; FIG. 5. Format: cell-based. On the procedure:
(§1) Quantitative PCR for IL-1α and IL-6 mRNA expression in BxPc3 pancreatic cancer cell lines. BxPc3 has been treated 48 hours with vehicle DMSO, 0.2 μM (TSA 0.2) or 1 μM (TSA 1) of Trichostatin A. Sin3B and IL-1α mRNA expressions are relative to the expressions in DMSO (*p<0.05).
(§2) BxPc3 human pancreatic cancer cell lines are known in the art and available from American Type Culture Collection (ATCC, Manassas, Va.). Cells were cultured in RPMI, 10% FBS, Sodium Pyruvate, HEPES and Penicillin/[…]. The cultures were maintained in 5% CO2 at 37° C.
Extraction of total RNA from Pancreas and PDECs was performed using RNEASY mini kit (QIAGEN). For the pancreas, a piece was snap-frozen, ground, and the frozen powder was added to the RNEASY lysis buffer. Reverse transcription was done using Moloney murine leukemia virus polymerase and oligo(dT) primers. RT-PCR analyses were done using Tag DNA polymerase (5 Prime) and dNTP (Promega). Quantitative RT-PCR analyses were done using the SYBR Green method and the samples were run on the BIO-RAD I cycler MYIQ. Expression levels were normalized to GAPDH. Results were reported as relative to the abundance of mSin3B^+/− or mSin3^B+/− KRas^G12D transcripts. […]

Data set [2] has as its system IL-1α expression in BxPc3 human PDAC cells. The data set is described as follows: Quantitative RT-PCR for IL-1α mRNA expression in BxPc3 pancreatic cancer cells. Format: cell-based. The conditions noted are these: BxPc3 cells treated 48 hours with 0.2 μM or 1 μM, relative to DMSO; FIG. 5, p<0.05. The procedure:
Quantitative PCR for Sin3B (*p<0.005) and IL-1α (*p<0.05) mRNA expression in BxPc3 pancreatic cancer cell lines. BxPc3 were infected with an empty vector or a shRNA against Sin3B (shSin3B). ShSin3B mRNA expressions are relative to the empty vector expression.
as §1, §2
DNA sequences encoding shRNAs for Sin3B (shSin3B) were selected and cloned into the PLKO retroviral vector (Open Biosystem). BxPc3 cells were infected with shSin3B or PLKO for 3 days and selected in puromycin for 5 days. The level of Sin3B knockdown by shSin3B was determined by quantitative RT-PCR.
Extraction of total RNA from Pancreas and PDECs was performed using RNEASY mini kit (QIAGEN). […] Quantitative RT-PCR analyses were done using the SYBR Green method and the samples were run on the BIO-RAD I cycler MYIQ. […]

Data set [3] has as its system Sin3B expression. The settings on record: van Oevelen, et al. (2008) Mol. Cell. 32:359-370; cited from earlier work.

As for `CC(/C=C/C(=O)NO)=C\[C@@H](C)C(=O)c1ccc(N(C)C)cc1` [trichostatin A], the “IL-6 expression after TSA treatment” value in data set [1] was “not significantly affected”. The “IL-1α expression after TSA treatment” value in data set [2] is “specific and dose-dependent down-regulation”.
Take “GCAAAGCGGUCCCUGUUUAUU (listed as RNA, chemistry not given here) [SEQ ID NO:6]”: in data set [3], the Sin3B expression result is “inhibit Sin3B expression”.
Regarding “GGCAAUGGGUCGUGCGAGAUU (chemistry not given here) [SEQ ID NO:7]”, the Sin3B expression result in data set [3] is recorded as “inhibit Sin3B expression”.
